Experimental data: the supplement of paper PMC10307832

Legend:
Assay in all cases: relative viability (nuclei count vs DMSO), 5 days (fraction); higher = more cells survive
[1] = compound: CC1=C(C(=O)N2C=CSC2=N1)CCN3CCC(=C(C4=CC=CC=C4)C5=CC=C(C=C5)F)CC3 + COc1cc2c(Oc3ccc(NC(=O)C4(C(=O)Nc5ccc(F)cc5)CC4)cc3F)ccnc2cc1OCCCN1CCOCC1 [Foretinib] (partner 0.25 µM)
Summary of the method: (§1)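 Five library-drug doses in √10 steps were combined with a fixed anchor-drug dose, or a single drug was given alone, by pin tool to lung cancer cell lines in 1536-well plates the day after seeding. Nuclei were stained and counted after 5 days. Relative viability is the nuclei count in treated wells over that in vehicle wells, taken as the median of duplicate plates.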

[2] = compound: CC1=C(C(=O)N2C=CSC2=N1)CCN3CCC(=C(C4=CC=CC=C4)C5=CC=C(C=C5)F)CC3 + CCNC(=O)c1noc(-c2cc(C(C)C)c(O)cc2O)c1-c1ccc(CN2CCOCC2)cc1 [Luminespib] (partner 0.01 µM)
Summary of the method: as §1

[3] = compound: CC1=C(C(=O)N2C=CSC2=N1)CCN3CCC(=C(C4=CC=CC=C4)C5=CC=C(C=C5)F)CC3 + Cc1cc(Nc2cc(N3CCN(C)CC3)nc(Sc3ccc(NC(=O)C4CC4)cc3)n2)n[nH]1 [Tozasertib] (partner 0.1 µM)
Summary of the method: as §1

[4] = compound: CC1=C(C(=O)N2C=CSC2=N1)CCN3CCC(=C(C4=CC=CC=C4)C5=CC=C(C=C5)F)CC3 + NC(=O)Nc1cc(-c2cccc(F)c2)sc1C(=O)N[C@H]1CCCNC1 [AZD7762] (partner 0.2 µM)
Summary of the method: as §1

Cell Line | relative viability ([1]; first compound 0.08 µM) | relative viability ([1]; first compound 0.253 µM) | relative viability ([1]; first compound 0.8 µM) | relative viability ([1]; first compound 2.53 µM) | relative viability ([1]; first compound 8 µM) | relative viability ([2]; first compound 0.08 µM) | relative viability ([2]; first compound 0.253 µM) | relative viability ([2]; first compound 0.8 µM) | relative viability ([2]; first compound 2.53 µM) | relative viability ([2]; first compound 8 µM) | relative viability ([3]; first compound 0.08 µM) | relative viability ([3]; first compound 0.253 µM) | relative viability ([3]; first compound 0.8 µM) | relative viability ([3]; first compound 2.53 µM) | relative viability ([3]; first compound 8 µM) | relative viability ([4]; first compound 0.08 µM) | relative viability ([4]; first compound 0.253 µM) | relative viability ([4]; first compound 0.8 µM) | relative viability ([4]; first compound 2.53 µM) | relative viability ([4]; first compound 8 µM)
A549 | 0.954 | 0.982 | 1.03 | 0.97 | 0.763 |  |  |  |  |  |  |  |  |  |  |  |  |  |  | 
COR-L23 | 0.898 | 1.02 | 1.07 | 1.23 | 0.584 | 0.61 | 0.831 | 0.785 | 0.671 | 0.504 | 0.18 | 0.164 | 0.169 | 0.214 | 0.184 |  |  |  |  | 
COR-L 105 | 0.574 | 1.05 | 1.02 | 1.56 | 0.761 | 0.673 | 0.817 | 0.798 | 0.809 | 0.659 | 0.322 | 0.346 | 0.34 | 0.388 | 0.345 |  |  |  |  | 
Calu-6 | 0.93 | 0.93 | 0.863 | 0.898 | 0.707 |  |  |  |  |  |  |  |  |  |  |  |  |  |  | 
HCC-44 |  |  |  |  |  | 1.37 | 1.51 |  | 1.3 | 0.736 | 0.855 | 1.33 |  | 0.896 | 0.525 | 1.04 | 1.04 | 1.08 | 1.17 | 1.06
HCC-78 | 0.547 | 0.522 | 0.513 | 0.534 | 0.522 |  |  |  |  |  | 0.402 | 0.468 | 0.451 | 0.345 | 0.303 | 0.691 | 0.71 | 0.58 | 0.662 | 0.567
HCC-366 | 0.935 | 1 | 1.01 | 1 | 0.662 |  |  |  |  |  | 0.103 | 0.123 | 0.103 | 0.0901 | 0.0622 | 0.302 | 0.317 | 0.25 | 0.23 | 0.211
NCI-H520 | 0.778 | 0.846 | 0.924 | 0.873 | 0.641 | 0.202 | 0.236 | 0.25 | 0.251 | 0.248 | 0.514 | 0.435 | 0.439 | 0.464 | 0.401 |  |  |  |  | 
NCI-H522 |  |  |  |  |  | 1.18 | 1.16 | 1.21 | 1.2 | 0.897 | 0.551 | 0.92 | 0.555 | 0.523 | 0.583 | 0.927 | 0.874 | 0.789 | 0.721 | 0.747
NCI-H661 | 0.871 | 1.02 | 0.983 | 1.05 | 0.814 | 1.03 | 0.984 | 0.928 | 1.04 | 0.598 | 0.341 | 0.35 | 0.36 | 0.383 | 0.361 |  |  |  |  | 
NCI-H1299 | 1.19 | 1.14 | 1.13 | 1.14 | 1.02 |  |  |  |  |  |  |  |  |  |  |  |  |  |  | 
NCI-H1563 | 0.943 | 0.87 | 0.907 | 0.946 | 0.769 | 0.643 | 0.572 | 0.49 | 0.508 | 0.534 |  |  |  |  |  |  |  |  |  | 
NCI-H1648 |  |  |  |  |  |  |  |  |  |  | 0.391 |  |  | 0.392 | 0.525 | 0.722 | 0.628 | 0.727 | 0.667 | 0.443
NCI-H1650 | 1.09 | 1.12 | 1.15 | 1.21 | 0.65 | 0.182 | 0.204 | 0.196 | 0.188 | 0.189 | 0.402 | 0.428 | 0.463 | 0.372 | 0.363 |  |  |  |  | 
NCI-H1703 | 0.4 | 0.415 | 0.321 | 0.363 | 0.319 |  |  |  |  |  |  |  |  |  |  | 0.14 | 0.139 | 0.194 | 0.117 | 0.132
NCI-H1792 |  |  |  |  |  | 0.354 | 0.444 | 0.585 | 0.379 | 0.349 |  |  |  |  |  | 0.649 | 0.655 | 0.62 | 0.636 | 0.386
NCI-H2009 | 1.33 | 1.24 | 1.18 | 1.26 | 1.13 | 0.973 | 0.955 | 1.08 | 1.11 | 0.9 | 0.775 | 0.668 | 0.738 | 0.756 | 0.478 |  |  |  |  | 
NCI-H2023 | 0.831 | 0.713 | 0.758 | 0.984 | 0.621 | 1.37 | 0.783 | 0.864 | 0.946 | 0.518 | 0.446 | 0.265 | 0.393 | 0.44 | 0.272 |  |  |  |  | 
NCI-H2228 | 0.689 | 0.645 | 1.13 | 0.864 | 0.55 | 0.126 | 0.194 | 0.181 | 0.137 | 0.101 | 0.278 | 0.237 | 0.227 | 0.232 | 0.282 |  |  |  |  | 
SK-LU-1 | 0.909 | 0.597 | 1.01 | 1.12 | 0.581 | 0.228 | 0.217 | 0.192 | 0.21 | 0.184 | 0.307 | 0.286 | 0.288 | 0.283 | 0.295 |  |  |  |  | 
SK-MES-1 | 0.979 | 1.07 | 0.928 | 0.731 | 0.864 | 0.947 | 0.832 | 0.689 | 0.931 | 0.594 | 0.922 | 0.971 | 0.862 | 1.08 | 0.601 |  |  |  |  | 
SW 1573 | 1.07 | 0.829 | 0.814 | 0.947 | 0.72 | 0.155 | 0.189 | 0.215 | 0.245 | 0.227 |  | 0.211 | 0.157 | 0.203 | 0.21 |  |  |  |  | 
UMC-11 | 0.948 | 1.07 | 1.08 | 1.18 | 0.692 | 1.18 | 1.05 | 1.07 | 1.11 | 0.786 | 0.208 | 0.225 | 0.194 | 0.212 | 0.202 |  |  |  |  | 
